Experiments:
senescent cells [1] = test: Cisplatin-induced peripheral neuropathy (CIPN) in C57BL/6 mice, Von Frey assay and Hot Plate Analgesia Meter; assay type: in vivo; conditions: 50 mg/kg/day i.p., 5 days per cycle, 2 cycles, mechanical sensitivity and thermal allodynia, FIG. 5-7
Experimental: (§1) CIPN was induced in young adult male and female C57BL/6 mice by intraperitoneal (i.p.) injection of Cisplatin (Lake Zurich, Ill., USA) at 2.3 mg/kg/d for 5 days per cycle for 2 cycles with an interval of 5 days between the cycles. The induction of CIPN was measured by analyzing the mechanical sensitivity using the Von Frey assay the day before Cisplatin treatment and on various day after Cisplatin treatment
Mice were treated as described in FIG. 1. The induction of CIPN was measured by analyzing the sensitivity to thermal allodynia using the Hot Plate Analgesia Meter on various day after Cisplatin treatment. N=10 for control group and 5 for Cisplatin-treated groups. ***p<0.001 vs. Control.
To determine the effect of senescent cells on the induction of CIPN, Cisplatin-treated mice were administered with vehicle or ABT263 at 50 mg/kg/day for 5 days per cycle for 2 cycles with an interval of 17 days between the cycles by i.p. injection at the indicated times after Cisplatin treatment. The induction of CIPN was measured by analyzing the mechanical sensitivity using the Von Frey assay (FIG. 5 and FIG. 6) and by analyzing the sensitivity to thermal allodynia using the Hot Plate Analgesia Meter (FIG. 7) the day before Cisplatin treatment and on various day after Cisplatin treatment.

senescent cells [2] = test: Cisplatin-induced peripheral neuropathy (CIPN) in p16-3MR transgenic mice, Von Frey assay and Hot Plate Analgesia Meter; assay type: in vivo; conditions: GCV 25 mg/kg/day or ABT263 50 mg/kg/day i.p., 5 days per cycle, 2 cycles, FIG. 8-11
Experimental: as §1, with “and female p16-3MR mice by” for “and female C57BL/6 mice by”, “injection of cisplatin (Lake Zurich,” for “injection of Cisplatin (Lake Zurich,”, “after Cisplatin treatment. N=5-6 mice per group.” for “after Cisplatin treatment”
Mice were treated as described in FIG. 8. The induction of CIPN was measured by analyzing the sensitivity to thermal allodynia using the Hot Plate Analgesia Meter on various day after Cisplatin treatment. N=5-6 mice per group.
To determine the effect of senescent cells on the induction of CIPN, cisplatin-treated mice were administered with vehicle, ganciclovir (GCV) at 25 mg/kg/day for 5 days per cycle for 2 cycles with an interval of 17 days between the cycles, or ABT263 at 50 mg/kg/day for 5 days per cycle for 2 cycles with an interval of 17 days between the cycles by i.p. injection at the indicated times after cisplatin treatment. […] The induction of CIPN was measured by analyzing the mechanical sensitivity using the Von Frey assay (FIG. 8 and FIG. 9) and by analyzing the sensitivity to thermal allodynia using the Hot Plate Analgesia Meter (FIG. 10 and FIG. 11) the day before Cisplatin treatment and on various day after Cisplatin treatment.

senescent osteocytes = test: Five-day administration to aged mice: western blot and qPCR of osteocyte-enriched femoral bone shafts; assay type: in vivo, 24-month-old female mice
Experimental: ABT-263 or its derivative Bcl-PROTAC (or vehicles) were administered by daily i.p. injections for 5 days to 24-month-old female mice. […] We have shown that γ-H2AX, p16, GATA4, RANKL and MMP-13 increase, while OPG and Wnt10b decrease with age in bone of female and male mice (Piemontese et al., 2017 JCI Insight).
Osteocyte-enriched femoral cortical bone was prepared by removing the ends, flushing the bone marrow by centrifugation, and removal of surface cells by scraping with a scalpel. Bone fragments were immediately frozen in liquid nitrogen and pulverized. Proteins were extracted with a buffer containing 20 mM Tris-HCL, 150 mM NaCl, 1% Triton X-100, protease inhibitor mixture, and phosphatase inhibitor cocktail (Sigma-Aldrich) on ice for 30 min and then keep on −80° C. for overnight. The protein concentration of the bone extract was determined using the DC Protein Assay Kit (Bio-Rad). The extracted protein ([…] per sample) was subjected to 15% SDS-PAGE gels and transferred electrophoretically onto PVDF membranes. The membranes were blocked in 5% fat-free milk/Tris-buffered saline for 120 min and incubate with each primary antibody followed by secondary antibodies conjugated with horseradish peroxidase. […] Bound antibodies were detected with ECL reagents (Millipore), and imaged and quantified with a VersaDoc™ imaging system (Bio-Rad).
(§2) Total RNA was extracted with Ultraspec (Biotecx Laboratories) and reverse-transcribed using the High-Capacity cDNA Archive Kit (Applied Biosystems) according to the manufacturer's instructions. TaqMan quantitative real-time PCR was performed using the following primers from Applied Biosystems: Rankl (Mm00441908_m1); Mmp-13 (Mm00439491_m1); OPG (Mm00435452_m1); Wnt10b (Mm00442104_m1); IL-1α (Mm99999060_m1); Sdf-1 (Mm00445553_m1); p21 (Mm00432448_m1). Target gene expression was calculated by normalizing to the housekeeping gene ribosomal protein S2 (Mm00475528_m1) using the ΔCt method (Livak and Schmittgen, 2001).

[3] = test system: bone marrow stromal cells; test: Five-day administration to aged mice: ex vivo bone marrow stromal cell cultures (qPCR, osteoblast and adipocyte differentiation); assay type: in vivo, 24-month-old female mice
Description: We also isolated bone marrow stromal cells from mice treated with vehicle or the senolytics and cultured them for 5 days.
Conversely, bone marrow cells from the mice treated with senolytics cultured in the presence of adipogenic medium had decreased adipogenic potential (FIG. 14C).
as §2
Total bone marrow cells pooled from 3-5 mice from each group were cultured with 20% FBS, 1% PSG and […] of ascorbic acid in 10-cm culture dishes for 5 days. Half of the medium was replaced every 3 days. Bone marrow-derived osteoprogenitor cells were re-plated into 12-well plates and cultured with […] of ascorbic acid and 10 mM b-glycerophosphate for 21 days. Mineralized matrix was stained with 40 mM Alizarin Red solution.
Bone marrow-derived stromal cells were cultured to 70% confluence, and the media supplemented with rosiglitazone (5 nM/m1) or with 3.3% BSA in PBS as vehicle control. Medium containing ligand was changed every 2 d for 11 d. Cells were fixed in 10% formalin in PBS, rinsed, and stained for 30 min with 0.15% Oil Red 0 (Sigma) in a 55:45 mix of isopropanol and water. Cells were counterstained with 0.5% methyl green (Fisher Scientific, Fairlawn, N.J.) in 0.1 M sodium acetate, pH4. Oil Red 0 staining was quantified after extraction of the dye with 1 ml isopropanol and absorbance determination at 490 nm.

osteoclast progenitors = test: Five-day administration to aged mice: osteoclast differentiation from bone marrow macrophages; assay type: in vivo, 24-month-old female mice; conditions: bone marrow macrophages from treated mice, cultured with RANKL and M-CSF for 5 days, FIG. 15A and 15B
Experimental: In summary, short-term administration of ABT-263 or Bcl-PROTAC to aged mice decreases senescent osteoprogenitors and osteocytes, as well as the SASP and osteoclastogenesis.
Bone marrow cells were obtained by flushing the tibiae and femurs from the 24 month-old female mice with α-MEM medium (Invitrogen). After the red blood cells were removed with ACK buffer (0.01 mM EDTA, 0.011 M KHCO3, and 0.155 M NH4Cl, pH 7.3), we suspended the cells in α-MEM complete media containing 10% (v/v) fetal bovine serum, 100 U ml-1 penicillin, and 100 μg ml-1 streptomycin and incubated the cells for 24 h in the presence of 10 ng ml-1 M-CSF. We collected the non-adherent cells and cultured with 30 ng ml-1 M-CSF for 3 days to generate bone marrow-derived macrophages. […] We fixed the osteoclast cultures with 10% neutral buffered formalin for 15 min and stained for tartrate-resistant acid phosphatase (TRAP) using the Leukocyte Acid Phosphatase Assay Kit, following the manufacturer's instructions (Sigma-Aldrich). For all assays we plated cells in triplicate.

platelets = conditions: administration to subjects; platelets rely on Bcl-xl for survival; cited from earlier work
[4] = femoral extracts, qPCR, FIG. 12B
[5] = bone marrow-derived stromal cells from treated mice, ex vivo culture, FIG. 13

In the case of `CC1(C)CCC(c2ccc(Cl)cc2)=C(CN2CCN(c3ccc(C(=O)NS(=O)(=O)c4ccc(N[C@H](CCN5CCOCC5)CSc5ccccc5)c(S(=O)(=O)C(F)(F)F)c4)cc3)CC2)C1` [ABT-263, (R)-4-(4-((4′-chloro-4,4-dimethyl-3,4,5,6-tetrahydro-[1,1′-biphenyl]-2-yl-)methyl)piperazin-1-yl)-N-((4-((4-morpholino-1-(phenylthio)butan-2-yl)amin-o)-3-((trifluoromethyl)sulfonyl)phenyl)sulfonyl)benzamide], the “Reversal of cisplatin-induced peripheral neuropathy” value (senescent cells [1]) is reported as “reversed Cisplatin-induced peripheral neuropathy (CIPN)”, the “Reversal of cisplatin-induced peripheral neuropathy” value (senescent cells [2]) is reported as “reversed cisplatin-induced peripheral neuropathy (CIPN)” and the “mRNA for OPG” value (senescent osteocytes; [4]) is reported as “increased the mRNA for OPG”. The “mRNA for RANKL and MMP13” value (senescent osteocytes; [4]) was “decreased the mRNA for RANKL and MMP13”, the “Markers of cell senescence: protein levels of γ-H2AX, p16 and GATA4” value (senescent osteocytes; osteocyte-enriched femoral bone shafts, daily i.p. for 5 days, western blot, FIG. 12A) was “decreased marker of cell senescence” and the “Expression of p21” value [3, 5] was “decreased expression of p21”. The “mRNA levels of RANKL, MMP-13, IL-1a and SDF-1” value [3, 5] was “decreased mRNA levels of RANKL and MMP-13, as well as IL-1a and SDF-1”, the “Osteoblastogenic potential (Alizarin Red staining)” value ([3]; stromal cells from treated mice, 21 days in osteogenic medium, FIG. 14A and 14B) was “promotes osteoblastogenesis” and the “Osteoclastogenic potential (TRAP-positive multinucleated cells)” value (osteoclast progenitors) was “decreased osteoclastogenic potential”. For the same compound, the Thrombocytopenia (platelets) was “cause thrombocytopenia”.

Reference: US20190054097A1, “COMPOSITIONS TARGETING SENESCENT CELLS AND THE USES THEREOF” (BioVentures, LLC, priority 2016, published 2019)
